Data set [1] deals with P. aeruginosa PA14. Particulars: PA14, 24 h.
Data set [2] deals with E. faecium ATCC 700221 - VRE. The settings on record: ATCC 700221, 24 h.
The subject of data set [3] is human red blood cells. Particulars: pH 7.4.
For data set [4], the system named is A. baumannii ATCC 19606. The settings on record: ATCC 19606, 24 h.
The test system of data set [5] is E. coli AIC221. Particulars: AIC221, 24 h.
Data set [6] concerns S. aureus ATCC BAA-1556 - MRSA. The settings on record: ATCC BAA-1556, 24 h.
Data set [7] deals with P. aeruginosa PAO1. Particulars: PAO1, 24 h.
Data set [8] has as its system HEK293T cells. Particulars: for CC50 vs HEK293T cells (source data of Figure 4a): 24 h.
The subject of data set [9] is S. aureus ATCC 12600. The settings on record: ATCC 12600, 24 h.
The test system of data set [10] is E. coli ATCC 11775. Particulars: ATCC 11775, 24 h.
Data set [11] deals with K. pneumoniae ATCC 13883. The settings on record: ATCC 13883, 24 h.

Ends that are not written are not given here.

As to KFSVFSKILRSIAKVF [Arachnoserver-18], the “Minimal Inhibitory Concentration, P. aeruginosa PA14 (-)” value in [1] came out at 16 µmol/L. In [2], the “Minimal Inhibitory Concentration, E. faecium ATCC 700221 - VRE (+)” value (shortened to “Minimal Inhibitory Concentration … - VRE (+)”) turned out to be 8 µmol/L. Besides, the HC50 in data set [3] is listed as 53.5. In addition, the “Minimal Inhibitory Concentration, A. baumannii ATCC 19606 (-)” value in data set [4] was 8 µmol/L. In [5], the “Minimal Inhibitory Concentration, E. coli AIC221 (-)” value turned out to be 4 µmol/L. For the same sequence, in [6], the “Minimal Inhibitory Concentration, S. aureus ATCC BAA-1556 - MRSA (+)” value (“Minimal Inhibitory Concentration … - MRSA (+)” below) was 16 µmol/L. Moreover, the “Minimal Inhibitory Concentration, P. aeruginosa PAO1 (-)” value in data set [7] was 32 µmol/L. In [8], the SIcytotoxicity is 3.1 and the “CC50 vs HEK293T cells (source data of Figure 4a)” value was 12.34 µM. Further, the “Minimal Inhibitory Concentration, S. aureus ATCC 12600 (+)” value in [9] was determined as 16 µmol/L. In addition, the “Minimal Inhibitory Concentration, E. coli ATCC 11775 (-)” value in [10] amounted to 4 µmol/L.
On to “KNKRFIRNLRSNLYQKIIKSTKSLL [Arachnoserver-9]”, for which the “Minimal Inhibitory Concentration, P. aeruginosa PA14 (-)” value in data set [1] stood at 16 µmol/L. The “Minimal Inhibitory Concentration … - VRE (+)” value in [2] was 16 µmol/L. In addition, the “Minimal Inhibitory Concentration, K. pneumoniae ATCC 13883 (-)” value in data set [11] was 16 µmol/L. Besides, in [3], the HC50 amounted to 4947.0. In addition, the “Minimal Inhibitory Concentration, A. baumannii ATCC 19606 (-)” value in data set [4] was determined as 32 µmol/L. Moreover, the “Minimal Inhibitory Concentration, E. coli AIC221 (-)” value in [5] stood at 8 µmol/L. For the same sequence, the “Minimal Inhibitory Concentration, P. aeruginosa PAO1 (-)” value in data set [7] stood at 16 µmol/L. Also, in data set [8], the SIcytotoxicity turned out to be 2.9 and the “CC50 vs HEK293T cells (source data of Figure 4a)” value stood at 23.56 µM. The “Minimal Inhibitory Concentration, E. coli ATCC 11775 (-)” value in data set [10] worked out at 16 µmol/L.
With KLKKLRKWIYRIV [UniprotKB-8], in [2], the “Minimal Inhibitory Concentration … - VRE (+)” value worked out at 16 µmol/L. The “Minimal Inhibitory Concentration, K. pneumoniae ATCC 13883 (-)” value in data set [11] stood at 64 µmol/L. This sequence also registered an HC50 in [3] of 636.4. The “Minimal Inhibitory Concentration, A. baumannii ATCC 19606 (-)” value in data set [4] turned out to be 32 µmol/L. Moreover, in data set [8], the SIcytotoxicity is given as 3.5 and the “CC50 vs HEK293T cells (source data of Figure 4a)” value came to 27.64 µM. Besides, the “Minimal Inhibitory Concentration, E. coli ATCC 11775 (-)” value in [10] was determined as 16 µmol/L.
For the sequence KRLRAKMLNSKFIKLIKR [Conoserver-1], the “Minimal Inhibitory Concentration, P. aeruginosa PA14 (-)” value in [1] turned out to be 32 µmol/L. In addition, the “Minimal Inhibitory Concentration … - VRE (+)” value in data set [2] is 32 µmol/L. The same sequence gave an HC50 in [3] of 1.085e+083. Further, the “Minimal Inhibitory Concentration, E. coli AIC221 (-)” value in [5] is 16 µmol/L. The “Minimal Inhibitory Concentration … - MRSA (+)” value in [6] amounted to 32 µmol/L. Moreover, in data set [7], the “Minimal Inhibitory Concentration, P. aeruginosa PAO1 (-)” value turned out to be 32 µmol/L. In addition, in [8], the SIcytotoxicity worked out at 5.2.
With KIKWFKTMKSLAKFLAK [Arachnoserver-33], the “Minimal Inhibitory Concentration, P. aeruginosa PA14 (-)” value in data set [1] was 8 µmol/L. Also, the “Minimal Inhibitory Concentration … - VRE (+)” value in [2] worked out at 32 µmol/L. The “Minimal Inhibitory Concentration, K. pneumoniae ATCC 13883 (-)” value in [11] stood at 4 µmol/L. This sequence showed an HC50 in [3] of 144.1. Moreover, in [4], the “Minimal Inhibitory Concentration, A. baumannii ATCC 19606 (-)” value amounted to 8 µmol/L. Besides, the “Minimal Inhibitory Concentration, E. coli AIC221 (-)” value in [5] is 4 µmol/L. For the same sequence, the “Minimal Inhibitory Concentration, P. aeruginosa PAO1 (-)” value in data set [7] amounted to 32 µmol/L. The sequence also gave an SIcytotoxicity in [8] of 8.0. Moreover, the “Minimal Inhibitory Concentration, E. coli ATCC 11775 (-)” value in data set [10] turned out to be 8 µmol/L.
Regarding KLLKIGLKSFARVLKKVL [Arachnoserver-1], the “Minimal Inhibitory Concentration, P. aeruginosa PA14 (-)” value in [1] stood at 8 µmol/L. In [2], the “Minimal Inhibitory Concentration … - VRE (+)” value was 16 µmol/L. In addition, the “Minimal Inhibitory Concentration, K. pneumoniae ATCC 13883 (-)” value in data set [11] was found to be 8 µmol/L. Further, the HC50 in data set [3] stood at 82.7. Besides, in data set [4], the “Minimal Inhibitory Concentration, A. baumannii ATCC 19606 (-)” value amounted to 16 µmol/L. The “Minimal Inhibitory Concentration, E. coli AIC221 (-)” value in [5] was determined as 4 µmol/L. The “Minimal Inhibitory Concentration … - MRSA (+)” value in data set [6] is 16 µmol/L. Moreover, in [8], the SIcytotoxicity amounted to 6.6 and the “CC50 vs HEK293T cells (source data of Figure 4a)” value stood at 26.22 µM. For the same sequence, the “Minimal Inhibitory Concentration, S. aureus ATCC 12600 (+)” value in data set [9] amounted to 16 µmol/L. In [10], the “Minimal Inhibitory Concentration, E. coli ATCC 11775 (-)” value worked out at 8 µmol/L.
For the sequence KIKWLKAMKSIAKFIAKK [Arachnoserver-5], the “Minimal Inhibitory Concentration, P. aeruginosa PA14 (-)” value in [1] is 2 µmol/L. In addition, the “Minimal Inhibitory Concentration … - VRE (+)” value in data set [2] came out at 8 µmol/L. Moreover, the “Minimal Inhibitory Concentration, K. pneumoniae ATCC 13883 (-)” value in data set [11] was found to be 2 µmol/L. In addition, the HC50 in [3] is 46.7. Besides, the “Minimal Inhibitory Concentration, A. baumannii ATCC 19606 (-)” value in data set [4] worked out at 8 µmol/L. Besides, in [5], the “Minimal Inhibitory Concentration, E. coli AIC221 (-)” value worked out at 2 µmol/L. Further, in data set [7], the “Minimal Inhibitory Concentration, P. aeruginosa PAO1 (-)” value turned out to be 4 µmol/L. In [8], the SIcytotoxicity is given as 7.0 and the “CC50 vs HEK293T cells (source data of Figure 4a)” value came out at 13.96 µM. Besides, the “Minimal Inhibitory Concentration, E. coli ATCC 11775 (-)” value in data set [10] stood at 2 µmol/L.
Turning to KLLKIGLKSFARVLKKVL [UniprotKB-1], the “Minimal Inhibitory Concentration, P. aeruginosa PA14 (-)” value in [1] is 8 µmol/L. In data set [3], this sequence had an HC50 of 34.9. Further, the “Minimal Inhibitory Concentration, E. coli AIC221 (-)” value in data set [5] amounted to 4 µmol/L. Moreover, the “Minimal Inhibitory Concentration, P. aeruginosa PAO1 (-)” value in [7] worked out at 8 µmol/L. For the same sequence, in [8], the “CC50 vs HEK293T cells” value was 10 µM, the SIcytotoxicity is 2.5 and the “CC50 vs HEK293T cells (source data of Figure 4a)” value is 10.13 µM. Further, the “Minimal Inhibitory Concentration, S. aureus ATCC 12600 (+)” value in data set [9] was 16 µmol/L. The “Minimal Inhibitory Concentration, E. coli ATCC 11775 (-)” value in data set [10] was 8 µmol/L.
As to “RKFNWGKLFKSAKKLYKTGKKLSKNKNVRKALKFGK [Arachnoserver-7]”, the “Minimal Inhibitory Concentration, P. aeruginosa PA14 (-)” value in [1] worked out at 4 µmol/L. In data set [2], the “Minimal Inhibitory Concentration … - VRE (+)” value was found to be 8 µmol/L. In [11], the “Minimal Inhibitory Concentration, K. pneumoniae ATCC 13883 (-)” value stood at 64 µmol/L. This sequence also gave an HC50 in data set [3] of 7.0. For the same sequence, the “Minimal Inhibitory Concentration, A. baumannii ATCC 19606 (-)” value in data set [4] came out at 8 µmol/L. For the same sequence, the “Minimal Inhibitory Concentration, E. coli AIC221 (-)” value in [5] is 1 µmol/L. The “Minimal Inhibitory Concentration, P. aeruginosa PAO1 (-)” value in data set [7] was determined as 8 µmol/L. Besides, in [8], the “CC50 vs HEK293T cells” value is 7 µM, the SIcytotoxicity is 6.8 and the “CC50 vs HEK293T cells (source data of Figure 4a)” value stood at 6.812 µM. Further, the “Minimal Inhibitory Concentration, E. coli ATCC 11775 (-)” value in data set [10] was 8 µmol/L.
On to RRVKRFKKFFRKLKKSVKKRAKEFFK [ISOB-1], for which the “Minimal Inhibitory Concentration, P. aeruginosa PA14 (-)” value in [1] came out at 8 µmol/L. Moreover, the “Minimal Inhibitory Concentration … - VRE (+)” value in data set [2] is 16 µmol/L. In data set [3], this sequence returned an HC50 of 2001.0. For the same sequence, the “Minimal Inhibitory Concentration, A. baumannii ATCC 19606 (-)” value in data set [4] turned out to be 64 µmol/L. For the same sequence, the “Minimal Inhibitory Concentration, E. coli AIC221 (-)” value in data set [5] stood at 8 µmol/L. For the same sequence, the “Minimal Inhibitory Concentration, P. aeruginosa PAO1 (-)” value in [7] is 4 µmol/L. In [8], this sequence showed an SIcytotoxicity of 28.9. The “Minimal Inhibitory Concentration, S. aureus ATCC 12600 (+)” value in [9] is 64 µmol/L. Moreover, in [10], the “Minimal Inhibitory Concentration, E. coli ATCC 11775 (-)” value came to 16 µmol/L.

These data come from article PMC12254355 (Nature Communications, 2025).
